Test results from doi:10.1101/2020.07.01.182642v1 (biorxiv, 2020).
Each block holds one compound with its values, some of them ahead of it.

Legend:
CAMK4 = CAMK4 (Homo sapiens, UniProt Q16566); conditions: binder
PBK = PBK (Homo sapiens, UniProt Q96KB5); conditions: binder
ADRBK1 = ADRBK1 (Homo sapiens, UniProt P25098); conditions: binder
STK32B = STK32B (Homo sapiens, UniProt Q9NY57); conditions: binder
ADRBK2 = ADRBK2 (Homo sapiens, UniProt P35626); conditions: binder
PAK2 = PAK2 (Homo sapiens, UniProt Q13177); conditions: binder
TYK2 = TYK2 (Homo sapiens, UniProt P29597); conditions: binder
TYK2, sequence (P29597 whole entry): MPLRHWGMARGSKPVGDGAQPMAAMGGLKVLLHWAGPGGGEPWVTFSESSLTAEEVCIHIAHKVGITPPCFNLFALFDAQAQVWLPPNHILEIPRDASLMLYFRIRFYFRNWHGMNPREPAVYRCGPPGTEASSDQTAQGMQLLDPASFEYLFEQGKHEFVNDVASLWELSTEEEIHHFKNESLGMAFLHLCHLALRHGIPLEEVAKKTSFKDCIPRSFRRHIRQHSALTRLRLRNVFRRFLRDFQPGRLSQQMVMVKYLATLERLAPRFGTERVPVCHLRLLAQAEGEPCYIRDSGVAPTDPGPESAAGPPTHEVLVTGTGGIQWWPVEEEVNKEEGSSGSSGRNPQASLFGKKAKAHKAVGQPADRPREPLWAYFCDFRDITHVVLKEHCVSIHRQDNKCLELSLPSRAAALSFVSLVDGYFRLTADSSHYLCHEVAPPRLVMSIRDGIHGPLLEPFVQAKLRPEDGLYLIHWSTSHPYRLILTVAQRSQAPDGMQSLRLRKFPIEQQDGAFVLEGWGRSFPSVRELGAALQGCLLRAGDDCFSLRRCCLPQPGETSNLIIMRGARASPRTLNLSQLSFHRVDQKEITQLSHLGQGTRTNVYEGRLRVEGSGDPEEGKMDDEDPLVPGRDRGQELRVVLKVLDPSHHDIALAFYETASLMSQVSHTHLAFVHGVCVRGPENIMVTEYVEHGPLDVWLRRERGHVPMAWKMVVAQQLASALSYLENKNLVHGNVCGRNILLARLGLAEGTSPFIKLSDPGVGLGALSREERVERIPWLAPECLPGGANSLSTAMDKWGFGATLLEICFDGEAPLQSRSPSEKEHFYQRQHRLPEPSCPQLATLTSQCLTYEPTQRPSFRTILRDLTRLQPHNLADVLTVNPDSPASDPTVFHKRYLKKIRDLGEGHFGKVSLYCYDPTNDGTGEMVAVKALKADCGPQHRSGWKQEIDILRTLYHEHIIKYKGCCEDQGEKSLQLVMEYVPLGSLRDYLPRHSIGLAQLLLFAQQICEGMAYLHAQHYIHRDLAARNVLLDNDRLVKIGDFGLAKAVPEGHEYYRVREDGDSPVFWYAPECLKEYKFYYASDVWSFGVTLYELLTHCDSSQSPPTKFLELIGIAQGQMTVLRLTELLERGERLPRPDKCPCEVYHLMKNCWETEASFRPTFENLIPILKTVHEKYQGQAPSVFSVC

MAPK7 = MAPK7 (Homo sapiens, UniProt Q13164); conditions: binder
PRKACA = PRKACA (Homo sapiens, UniProt P17612); conditions: binder
ITK = ITK (Homo sapiens, UniProt Q08881); conditions: binder
ITK, sequence (Q08881 whole entry): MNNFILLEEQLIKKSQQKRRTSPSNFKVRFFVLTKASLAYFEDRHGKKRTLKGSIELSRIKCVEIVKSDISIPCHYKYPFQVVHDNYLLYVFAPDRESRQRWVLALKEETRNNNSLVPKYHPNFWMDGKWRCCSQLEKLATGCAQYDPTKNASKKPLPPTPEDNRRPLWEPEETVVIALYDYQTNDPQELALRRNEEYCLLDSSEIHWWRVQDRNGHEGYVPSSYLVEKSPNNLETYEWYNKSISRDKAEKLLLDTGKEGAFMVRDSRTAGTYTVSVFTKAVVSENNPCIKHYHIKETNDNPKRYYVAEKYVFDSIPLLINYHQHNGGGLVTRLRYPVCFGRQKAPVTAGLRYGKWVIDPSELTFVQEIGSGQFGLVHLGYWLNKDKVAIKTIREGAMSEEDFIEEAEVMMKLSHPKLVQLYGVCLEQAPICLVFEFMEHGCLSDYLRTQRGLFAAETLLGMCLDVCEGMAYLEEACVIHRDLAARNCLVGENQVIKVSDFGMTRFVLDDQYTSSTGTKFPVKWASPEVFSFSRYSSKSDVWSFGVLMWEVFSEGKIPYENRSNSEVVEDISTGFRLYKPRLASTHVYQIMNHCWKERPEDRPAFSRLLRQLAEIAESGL

CAMK2G = CAMK2G (Homo sapiens, UniProt Q13555); conditions: binder
CAMKK1 = CAMKK1 (Homo sapiens, UniProt Q8N5S9); conditions: binder
TEC = TEC (Homo sapiens, UniProt P42680); conditions: binder
TEC, sequence (P42680 whole entry): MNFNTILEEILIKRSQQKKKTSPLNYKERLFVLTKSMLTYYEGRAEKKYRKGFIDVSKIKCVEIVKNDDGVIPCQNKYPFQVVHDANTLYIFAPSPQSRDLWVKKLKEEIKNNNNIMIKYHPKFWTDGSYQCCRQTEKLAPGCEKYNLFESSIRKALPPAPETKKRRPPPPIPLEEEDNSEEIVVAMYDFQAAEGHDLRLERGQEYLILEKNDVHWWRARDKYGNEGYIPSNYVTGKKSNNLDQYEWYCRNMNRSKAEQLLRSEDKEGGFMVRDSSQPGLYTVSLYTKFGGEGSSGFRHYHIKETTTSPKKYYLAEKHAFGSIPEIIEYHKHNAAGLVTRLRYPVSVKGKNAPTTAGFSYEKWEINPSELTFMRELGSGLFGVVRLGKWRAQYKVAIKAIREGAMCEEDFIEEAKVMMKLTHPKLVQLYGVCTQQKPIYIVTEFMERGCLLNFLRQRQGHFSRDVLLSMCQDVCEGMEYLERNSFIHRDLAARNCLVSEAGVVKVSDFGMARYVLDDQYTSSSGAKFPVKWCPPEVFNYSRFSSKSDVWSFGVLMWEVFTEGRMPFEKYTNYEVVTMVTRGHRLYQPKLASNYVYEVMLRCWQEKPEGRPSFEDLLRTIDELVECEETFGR

STK32C = STK32C (Homo sapiens, UniProt Q86UX6); conditions: binder
LATS1 = LATS1 (Homo sapiens, UniProt O95835); conditions: binder
SRPK1 = SRPK1 (Homo sapiens, UniProt Q96SB4); conditions: binder
ERN2 = ERN2 (Homo sapiens, UniProt Q76MJ5); conditions: binder
LIMK1 = LIMK1 (Homo sapiens, UniProt P53667); conditions: binder
FGFR4 = FGFR4 (Homo sapiens, UniProt P22455); conditions: binder
MYO3A = MYO3A (Homo sapiens, UniProt Q8NEV4); conditions: binder
IGF1R = IGF1R (Homo sapiens, UniProt P08069); conditions: binder
CLK1 (full-length) = CLK1 (full-length) (Homo sapiens, UniProt P49759, V324A); assay: cell-based; parameters: species or system HEK293T
BMPR1A = BMPR1A (Homo sapiens, UniProt P36894); conditions: binder
BMPR2 = BMPR2 (Homo sapiens, UniProt Q13873); conditions: binder
BMPR2, sequence (Q13873 whole entry): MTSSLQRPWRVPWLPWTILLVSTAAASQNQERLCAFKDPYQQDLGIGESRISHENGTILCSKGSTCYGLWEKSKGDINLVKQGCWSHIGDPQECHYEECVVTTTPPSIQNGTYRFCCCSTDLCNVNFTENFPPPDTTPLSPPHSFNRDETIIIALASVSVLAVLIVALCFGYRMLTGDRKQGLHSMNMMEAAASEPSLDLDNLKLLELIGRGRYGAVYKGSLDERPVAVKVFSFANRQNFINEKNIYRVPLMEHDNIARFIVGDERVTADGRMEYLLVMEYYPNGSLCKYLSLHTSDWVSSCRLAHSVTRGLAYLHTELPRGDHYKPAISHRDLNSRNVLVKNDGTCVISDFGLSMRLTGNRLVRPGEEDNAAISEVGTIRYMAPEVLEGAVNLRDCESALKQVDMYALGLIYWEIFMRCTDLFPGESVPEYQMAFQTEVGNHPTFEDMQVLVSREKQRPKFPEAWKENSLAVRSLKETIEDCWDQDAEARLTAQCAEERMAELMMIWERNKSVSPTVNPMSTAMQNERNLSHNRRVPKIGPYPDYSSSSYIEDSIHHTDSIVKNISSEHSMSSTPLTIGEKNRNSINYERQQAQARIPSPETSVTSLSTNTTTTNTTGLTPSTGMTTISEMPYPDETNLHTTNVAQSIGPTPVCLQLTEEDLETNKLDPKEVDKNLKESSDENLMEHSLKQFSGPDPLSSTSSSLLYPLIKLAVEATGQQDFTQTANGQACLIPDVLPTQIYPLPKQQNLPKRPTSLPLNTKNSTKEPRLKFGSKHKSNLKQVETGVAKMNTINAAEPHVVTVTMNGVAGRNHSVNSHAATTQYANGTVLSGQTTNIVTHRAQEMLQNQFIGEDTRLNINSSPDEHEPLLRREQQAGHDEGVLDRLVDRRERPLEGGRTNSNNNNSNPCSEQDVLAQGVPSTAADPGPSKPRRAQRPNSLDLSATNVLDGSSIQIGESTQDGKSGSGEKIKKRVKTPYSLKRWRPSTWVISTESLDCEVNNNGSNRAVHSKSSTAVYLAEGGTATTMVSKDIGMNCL

CSNK1G2 = CSNK1G2 (Homo sapiens, UniProt P78368); conditions: binder
DYRK1A = DYRK1A (Homo sapiens, UniProt Q13627); conditions: binder
PIM1 = PIM1 (Homo sapiens, UniProt P11309); conditions: binder
CSNK1E = CSNK1E (Homo sapiens, UniProt P49674); conditions: binder

CAMK4, sequence (Q16566 whole entry): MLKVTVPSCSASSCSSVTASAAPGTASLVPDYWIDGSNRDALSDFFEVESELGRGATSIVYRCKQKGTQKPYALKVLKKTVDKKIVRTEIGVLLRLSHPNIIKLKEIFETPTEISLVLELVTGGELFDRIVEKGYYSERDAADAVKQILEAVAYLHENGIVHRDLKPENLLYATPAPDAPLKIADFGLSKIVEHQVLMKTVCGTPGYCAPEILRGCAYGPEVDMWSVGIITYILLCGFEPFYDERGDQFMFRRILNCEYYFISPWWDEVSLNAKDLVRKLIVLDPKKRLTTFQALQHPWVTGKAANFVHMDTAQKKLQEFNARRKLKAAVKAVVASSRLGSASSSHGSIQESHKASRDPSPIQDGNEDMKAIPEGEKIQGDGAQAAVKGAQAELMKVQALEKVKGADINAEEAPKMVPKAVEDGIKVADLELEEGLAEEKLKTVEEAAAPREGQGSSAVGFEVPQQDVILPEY
STK32B, sequence (Q9NY57 whole entry): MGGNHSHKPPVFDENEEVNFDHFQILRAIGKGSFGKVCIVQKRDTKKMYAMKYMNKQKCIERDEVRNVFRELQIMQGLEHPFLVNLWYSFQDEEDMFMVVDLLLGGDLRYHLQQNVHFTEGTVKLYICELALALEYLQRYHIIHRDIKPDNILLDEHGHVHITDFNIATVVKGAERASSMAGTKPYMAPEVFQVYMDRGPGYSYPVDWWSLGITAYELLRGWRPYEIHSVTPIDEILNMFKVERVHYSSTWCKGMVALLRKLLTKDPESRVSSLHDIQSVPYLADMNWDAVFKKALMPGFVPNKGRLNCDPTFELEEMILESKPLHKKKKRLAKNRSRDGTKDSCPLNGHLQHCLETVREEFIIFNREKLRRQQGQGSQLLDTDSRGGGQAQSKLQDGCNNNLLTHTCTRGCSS
ADRBK1, sequence (P25098 whole entry): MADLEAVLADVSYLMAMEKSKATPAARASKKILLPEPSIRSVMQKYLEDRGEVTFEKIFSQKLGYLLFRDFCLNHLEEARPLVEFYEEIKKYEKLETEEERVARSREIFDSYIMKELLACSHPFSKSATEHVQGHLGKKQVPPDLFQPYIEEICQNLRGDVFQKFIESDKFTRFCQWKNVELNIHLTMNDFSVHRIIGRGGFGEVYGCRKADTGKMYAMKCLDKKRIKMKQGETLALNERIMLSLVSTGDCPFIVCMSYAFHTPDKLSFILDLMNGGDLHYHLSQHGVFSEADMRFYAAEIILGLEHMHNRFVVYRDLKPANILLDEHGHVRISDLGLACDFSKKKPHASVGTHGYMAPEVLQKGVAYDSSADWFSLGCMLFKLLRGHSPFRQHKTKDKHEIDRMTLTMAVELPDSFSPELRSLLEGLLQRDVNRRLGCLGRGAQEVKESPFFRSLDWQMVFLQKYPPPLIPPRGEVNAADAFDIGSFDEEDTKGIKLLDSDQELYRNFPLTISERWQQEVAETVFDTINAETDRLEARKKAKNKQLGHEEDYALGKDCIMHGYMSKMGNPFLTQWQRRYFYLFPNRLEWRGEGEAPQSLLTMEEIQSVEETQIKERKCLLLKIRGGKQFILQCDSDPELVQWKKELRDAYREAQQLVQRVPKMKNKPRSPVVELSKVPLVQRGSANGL

ΔTm inhibitor 2 (CAMK4): -0.2 °C
ΔTm inhibitor 2 (PBK): 0.5 °C
ΔTm inhibitor 2 (ADRBK1): 0.1 °C
ΔTm inhibitor 2 (STK32B): -0.2 °C
ΔTm inhibitor 2 (ADRBK2): -0.2 °C
ΔTm inhibitor 2 (PAK2): -0.6 °C
ΔTm inhibitor 2 (TYK2): 0.6 °C
ΔTm inhibitor 2 (MAPK7): 0.2 °C
ΔTm inhibitor 2 (PRKACA): -0.2 °C
ΔTm inhibitor 2 (ITK): 1.1 °C
ΔTm inhibitor 2 (CAMK2G): 0.1 °C
ΔTm inhibitor 2 (CAMKK1): 0.0 °C
ΔTm inhibitor 2 (TEC): 1.0 °C
ΔTm inhibitor 2 (STK32C): -0.9 °C
ΔTm inhibitor 2 (LATS1): 0.1 °C
ΔTm inhibitor 2 (SRPK1): 0.0 °C
SMILES: CCN1/C(=C/C(C)=O)Sc2ccc(OC)cc21 [compound 2, TG003]

ΔTm inhibitor 4 (ERN2): 0.4 °C
ΔTm inhibitor 4 (LIMK1): 0.5 °C
ΔTm inhibitor 4 (FGFR4): 0.2 °C
ΔTm inhibitor 4 (MYO3A): 0.2 °C
ΔTm inhibitor 4 (IGF1R): 0.2 °C
SMILES: Nc1nccc(-c2ccc3noc(-c4ccc(Cl)cc4)c3c2)n1 [compound 4, K00972]

Ki (CLK1 (full-length)): 512 ± 100 nM
ΔTm inhibitor 1 (BMPR1A): 10.9 °C
ΔTm inhibitor 1 (BMPR2): 7.8 °C
ΔTm inhibitor 1 (CSNK1G2): 2.5 °C
ΔTm inhibitor 1 (DYRK1A): 3.6 °C
ΔTm inhibitor 1 (PIM1): 6.3 °C
ΔTm inhibitor 1 (CSNK1E): 4.4 °C
SMILES: CC(=O)c1cccc(-c2cnc3ccc(NCC4CC4)nn23)c1 [compound 1, K00135]
